Measurements taken from PubChem BioAssay (NCI).
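Assay format: 96-well plates, 48-hour exposure. At the TGI there is no net growth.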

How the values were obtained:
Test in all cases: NCI-60 cell line screen, 48 h
786-0 renal = test system: 786-0 renal
A549 NSCLC = test system: A549 NSCLC
ACHN renal = test system: ACHN renal
BT-549 breast = test system: BT-549 breast
CCRF-CEM leukemia = test system: CCRF-CEM leukemia
COLO 205 colon = test system: COLO 205 colon
DU-145 prostate = test system: DU-145 prostate
EKVX NSCLC = test system: EKVX NSCLC
HCT-116 colon = test system: HCT-116 colon
HCT-15 colon = test system: HCT-15 colon
HL-60(TB) leukemia = test system: HL-60(TB) leukemia
HOP-62 NSCLC = test system: HOP-62 NSCLC
HOP-92 NSCLC = test system: HOP-92 NSCLC
HT29 colon = test system: HT29 colon
K-562 leukemia = test system: K-562 leukemia
KM12 colon = test system: KM12 colon
M14 melanoma = test system: M14 melanoma
MALME-3M melanoma = test system: MALME-3M melanoma
MCF7 breast = test system: MCF7 breast
MDA-MB-435 = test system: MDA-MB-435
MDA-N = test system: MDA-N
NCI-H226 lung = test system: NCI-H226 lung
NCI-H23 lung = test system: NCI-H23 lung
NCI-H460 lung = test system: NCI-H460 lung
NCI/ADR-RES ovarian = test system: NCI/ADR-RES ovarian
OVCAR-3 ovarian = test system: OVCAR-3 ovarian
OVCAR-5 ovarian = test system: OVCAR-5 ovarian
OVCAR-8 ovarian = test system: OVCAR-8 ovarian
PC-3 prostate = test system: PC-3 prostate
RPMI-8226 leukemia = test system: RPMI-8226 leukemia
RXF 393 renal = test system: RXF 393 renal
SF-268 CNS = test system: SF-268 CNS
SF-295 CNS = test system: SF-295 CNS
SF-539 CNS = test system: SF-539 CNS
SK-MEL-28 melanoma = test system: SK-MEL-28 melanoma
SN12C renal = test system: SN12C renal
SNB-19 CNS = test system: SNB-19 CNS
SR leukemia = test system: SR leukemia
SW-620 colon = test system: SW-620 colon
T-47D breast = test system: T-47D breast
TK-10 renal = test system: TK-10 renal
U251 CNS = test system: U251 CNS
UACC-257 melanoma = test system: UACC-257 melanoma
UO-31 renal = test system: UO-31 renal
A498 renal = test system: A498 renal
CAKI-1 renal = test system: CAKI-1 renal
HCC-2998 colon = test system: HCC-2998 colon
HS 578T breast = test system: HS 578T breast
IGROV1 ovarian = test system: IGROV1 ovarian
LOX IMVI melanoma = test system: LOX IMVI melanoma
MOLT-4 leukemia = test system: MOLT-4 leukemia
NCI-H522 lung = test system: NCI-H522 lung
OVCAR-4 ovarian = test system: OVCAR-4 ovarian
SK-MEL-2 melanoma = test system: SK-MEL-2 melanoma
SK-MEL-5 melanoma = test system: SK-MEL-5 melanoma
SK-OV-3 ovarian = test system: SK-OV-3 ovarian
UACC-62 melanoma = test system: UACC-62 melanoma
MDA-MB-231 breast = test system: MDA-MB-231 breast
SNB-75 CNS = test system: SNB-75 CNS

Measured: TGI

Cc1ccc(/S(Cc2ccccc2)=N\S(=O)(=O)c2ccc(C)cc2)cc1 (configuration not stated)
not listed: A498 renal | CAKI-1 renal | HCC-2998 colon | HS 578T breast | IGROV1 ovarian | LOX IMVI melanoma | MOLT-4 leukemia | NCI-H522 lung | OVCAR-4 ovarian | SK-MEL-2 melanoma | SK-MEL-5 melanoma | SK-OV-3 ovarian | UACC-62 melanoma | MDA-MB-231 breast | SNB-75 CNS
> 100 µM: all other assays above

C[n+]1ccccc1/C1=c2\cc/c([nH]2)=C(\c2cccc[n+]2C)C2=N/C(=C(/c3cccc[n+]3C)C3C=CC(N3)/C(c3cccc[n+]3C)=C3/C=CC1=N3)C=C2
not listed: MDA-MB-231 breast | SNB-75 CNS
> 100 µM: all other assays above

O=c1[nH]c(=O)n([C@@H]2O[C@H](CO)[C@@H](O)[C@@H]2F)cc1I
66.8 µM: CCRF-CEM leukemia
not listed: PC-3 prostate | RPMI-8226 leukemia | SR leukemia | SK-MEL-2 melanoma
> 100 µM: all other assays above

CC(=O)n1nc(-c2ccc3ccccc3c2)nc1C
not listed: HOP-92 NSCLC | NCI-H226 lung | NCI-H23 lung | RPMI-8226 leukemia | SK-MEL-28 melanoma | SNB-19 CNS | U251 CNS | A498 renal
> 100 µM: all other assays above
